Laboratory results published in publication PMC3474704 (Clinical cancer research : an official journal of the …, 2012).
Read-outs that look alike come from different tables or passages of the source.

How the values were obtained:
FLT3 = FLT3 (Homo sapiens, UniProt P36888); test: FLT3 IC50 determination; assay type: biochemical
SW620 [1] = system: SW620
HT29 xenografts = test: HT29 xenograft growth delay, combination with gemcitabine; assay type: in vivo, mouse
CHK2 = CHK2 (Homo sapiens, UniProt O96017); test: CHK2 IC50 determination; assay type: biochemical
CHK2, sequence (O96017 whole entry): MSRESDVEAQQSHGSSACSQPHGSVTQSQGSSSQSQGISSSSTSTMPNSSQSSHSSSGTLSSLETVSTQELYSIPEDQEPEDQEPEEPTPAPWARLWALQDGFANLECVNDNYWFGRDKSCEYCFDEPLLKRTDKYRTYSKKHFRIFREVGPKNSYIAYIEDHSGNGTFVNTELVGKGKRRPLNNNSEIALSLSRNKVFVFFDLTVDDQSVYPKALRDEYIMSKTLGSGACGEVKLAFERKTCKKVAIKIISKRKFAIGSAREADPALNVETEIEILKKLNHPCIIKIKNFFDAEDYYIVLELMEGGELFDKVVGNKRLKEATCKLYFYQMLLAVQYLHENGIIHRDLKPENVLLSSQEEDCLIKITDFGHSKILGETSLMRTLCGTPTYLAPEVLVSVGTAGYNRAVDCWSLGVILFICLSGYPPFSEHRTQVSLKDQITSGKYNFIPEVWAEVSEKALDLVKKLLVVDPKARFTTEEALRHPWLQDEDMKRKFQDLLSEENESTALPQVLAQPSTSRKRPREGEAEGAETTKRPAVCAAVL

[2] = Plasma pharmacokinetics in BALB/c mice; assay type: in vivo, mouse; conditions: for AUC0-∞ / peak plasma concentration: BALB/c mice
SW620 xenografts = test: SW620 xenograft, combination with gemcitabine; assay type: in vivo, mouse; conditions: 75mg/kg p.o. with gemcitabine 100mg/kg i.v.
Calu6 [3] = test: cells; conditions: Homo sapiens, Calu-6, 96 h
Calu6 [4] = system: Calu6
AMPK = test: Kinase profiling at 1 μM: AMPK; assay type: biochemical, human
CHK1 [5] = molecular target: T1, CHK1 (Homo sapiens, UniProt O14757); test: Cell-based ELISA for G2 checkpoint abrogation
T1 sequence (O14757 1-476): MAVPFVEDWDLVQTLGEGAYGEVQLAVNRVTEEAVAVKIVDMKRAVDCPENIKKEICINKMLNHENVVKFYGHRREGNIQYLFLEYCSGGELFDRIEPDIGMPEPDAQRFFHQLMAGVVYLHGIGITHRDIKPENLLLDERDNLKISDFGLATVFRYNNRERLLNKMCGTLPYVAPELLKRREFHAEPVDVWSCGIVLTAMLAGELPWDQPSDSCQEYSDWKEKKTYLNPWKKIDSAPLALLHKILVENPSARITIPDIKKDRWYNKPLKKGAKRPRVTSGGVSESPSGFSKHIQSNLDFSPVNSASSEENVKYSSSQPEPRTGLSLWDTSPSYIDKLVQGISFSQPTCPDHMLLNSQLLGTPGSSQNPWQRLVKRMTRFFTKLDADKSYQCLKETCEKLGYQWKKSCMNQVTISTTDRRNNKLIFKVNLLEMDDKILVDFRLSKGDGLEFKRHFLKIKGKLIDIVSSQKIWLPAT

MAP4K = test: Kinase profiling at 1 μM: MAP4K; assay type: biochemical, human
[6] = Plasma protein binding by ultra filtration; assay type: in vitro ADME; conditions: mouse
120-140 human kinases = test: In vitro kinase profiling at 1 and 10 μM, ATP at Km; assay type: biochemical
RSK = test: Kinase profiling at 1 μM: RSK; assay type: biochemical, human
HT29 tumors = test: HT29 xenograft growth delay, combination with irinotecan; assay type: in vivo, mouse; conditions: for growth delay: HT29 tumors
NUAK1 = NUAK1 (Homo sapiens, UniProt O60285); test: Kinase profiling at 1 μM: NUAK1; assay type: biochemical
NUAK1, sequence (O60285 whole entry): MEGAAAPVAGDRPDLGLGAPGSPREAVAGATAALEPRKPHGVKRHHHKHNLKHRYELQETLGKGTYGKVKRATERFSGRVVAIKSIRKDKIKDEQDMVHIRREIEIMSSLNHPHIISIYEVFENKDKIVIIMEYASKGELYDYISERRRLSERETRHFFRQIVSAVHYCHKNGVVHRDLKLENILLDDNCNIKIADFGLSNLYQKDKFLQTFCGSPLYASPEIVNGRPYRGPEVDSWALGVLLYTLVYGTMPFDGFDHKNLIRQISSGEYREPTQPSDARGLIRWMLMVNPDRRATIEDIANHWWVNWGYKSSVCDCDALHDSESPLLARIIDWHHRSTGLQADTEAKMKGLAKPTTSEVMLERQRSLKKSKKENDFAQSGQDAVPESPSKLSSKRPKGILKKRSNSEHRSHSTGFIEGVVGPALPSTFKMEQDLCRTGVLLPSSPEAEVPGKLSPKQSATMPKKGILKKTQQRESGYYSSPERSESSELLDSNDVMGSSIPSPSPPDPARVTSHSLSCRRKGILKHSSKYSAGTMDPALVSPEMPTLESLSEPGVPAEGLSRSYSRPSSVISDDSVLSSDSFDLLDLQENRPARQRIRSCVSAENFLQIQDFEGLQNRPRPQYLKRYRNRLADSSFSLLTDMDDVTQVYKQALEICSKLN

CHK1 [7] = molecular target: T1, CHK1; test: Cell-based ELISA for G2 checkpoint abrogation; remark: listed apart in the source
IRAK 1 = IRAK 1 (Homo sapiens, UniProt P51617); test: Kinase profiling at 1 μM: IRAK 1; assay type: biochemical
IRAK 1, sequence (P51617 whole entry): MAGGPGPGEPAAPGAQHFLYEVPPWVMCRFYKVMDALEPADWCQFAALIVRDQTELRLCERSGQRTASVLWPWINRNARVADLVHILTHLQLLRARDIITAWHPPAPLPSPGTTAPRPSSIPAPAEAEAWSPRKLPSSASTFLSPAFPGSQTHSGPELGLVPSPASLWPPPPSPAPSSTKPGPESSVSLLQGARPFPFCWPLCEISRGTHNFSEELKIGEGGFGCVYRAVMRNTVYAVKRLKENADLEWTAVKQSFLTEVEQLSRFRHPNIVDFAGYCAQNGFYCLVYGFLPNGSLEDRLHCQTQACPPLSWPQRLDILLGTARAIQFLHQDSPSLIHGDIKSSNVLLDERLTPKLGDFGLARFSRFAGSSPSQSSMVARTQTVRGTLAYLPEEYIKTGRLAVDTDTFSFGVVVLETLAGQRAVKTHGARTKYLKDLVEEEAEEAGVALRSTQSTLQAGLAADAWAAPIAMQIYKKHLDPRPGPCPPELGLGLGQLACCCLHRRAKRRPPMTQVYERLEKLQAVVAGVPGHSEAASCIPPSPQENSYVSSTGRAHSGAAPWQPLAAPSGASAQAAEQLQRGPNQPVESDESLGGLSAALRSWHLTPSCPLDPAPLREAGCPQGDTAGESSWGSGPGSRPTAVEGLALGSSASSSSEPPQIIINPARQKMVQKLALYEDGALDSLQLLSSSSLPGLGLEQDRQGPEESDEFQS

[8] = system: pS296, pS317 and pS345 CHK1; test: Western blotting of CHK1 phosphorylation biomarkers in HT29 cells; assay type: cell-based, human; conditions: SN38, up to 5μM
recombinant human CHK1 = recombinant human CHK1 (Homo sapiens, UniProt O14757); test: biochemical
CHK1 [9] = molecular target: T1, CHK1; conditions: HT29
TrKA = TrKA (Homo sapiens, UniProt P04629); test: Kinase profiling at 1 μM: TrKA; assay type: biochemical
TrKA, sequence (P04629 33-796): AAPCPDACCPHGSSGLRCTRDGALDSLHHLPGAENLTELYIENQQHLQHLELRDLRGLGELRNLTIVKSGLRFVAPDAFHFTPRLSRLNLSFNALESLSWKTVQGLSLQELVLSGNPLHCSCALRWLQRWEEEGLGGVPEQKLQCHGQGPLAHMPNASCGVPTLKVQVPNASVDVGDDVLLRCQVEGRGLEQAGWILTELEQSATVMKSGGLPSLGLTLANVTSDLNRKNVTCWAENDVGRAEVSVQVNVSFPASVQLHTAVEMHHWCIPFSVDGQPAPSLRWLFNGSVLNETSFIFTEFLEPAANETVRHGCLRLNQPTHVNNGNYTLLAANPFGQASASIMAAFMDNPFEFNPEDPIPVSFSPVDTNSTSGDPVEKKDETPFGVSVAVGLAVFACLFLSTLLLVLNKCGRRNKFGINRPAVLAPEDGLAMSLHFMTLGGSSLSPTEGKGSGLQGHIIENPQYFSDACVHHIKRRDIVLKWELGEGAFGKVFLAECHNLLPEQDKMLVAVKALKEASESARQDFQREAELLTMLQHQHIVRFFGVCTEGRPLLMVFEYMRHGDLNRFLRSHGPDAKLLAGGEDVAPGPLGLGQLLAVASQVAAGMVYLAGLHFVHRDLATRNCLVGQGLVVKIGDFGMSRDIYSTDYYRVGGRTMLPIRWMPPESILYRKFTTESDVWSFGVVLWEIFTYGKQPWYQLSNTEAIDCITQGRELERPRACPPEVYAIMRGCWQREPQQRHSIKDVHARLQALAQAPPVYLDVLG

HT29 [10] = system: HT29
[11] = system: MYCN-driven neuroblastoma; test: Single agent activity in TH-MYCN transgenic mouse model of neuroblastoma; assay type: in vivo
CHK1 [12] = molecular target: T1, CHK1; test: cell-based
[13] = system: S296 CHK1 autophosphorylation; test: Biomarker changes in HT29 xenografts; assay type: in vivo, mouse; conditions: 100 or 150mg/kg p.o. with gemcitabine 100mg/kg i.v., P<0.05
[14] = system: four human tumor cell lines; test: cells
CHK1 [15] = molecular target: T1, CHK1; test: Kinase profiling at 1 μM: CHK1; assay type: biochemical
SW620 [16] = test: cells; conditions: Homo sapiens, SW-620, 96 h
[17] = system: HT29 colon carcinoma cells; test: Cell cycle analysis; assay type: cell-based, human
[18] = system: SW620 colon carcinoma cell line; test: Cell cycle analysis; assay type: cell-based, human
Aurora B = Aurora B (Homo sapiens, UniProt Q96GD4); test: Kinase profiling at 1 μM: Aurora B; assay type: biochemical
Aurora B, sequence (Q96GD4 whole entry): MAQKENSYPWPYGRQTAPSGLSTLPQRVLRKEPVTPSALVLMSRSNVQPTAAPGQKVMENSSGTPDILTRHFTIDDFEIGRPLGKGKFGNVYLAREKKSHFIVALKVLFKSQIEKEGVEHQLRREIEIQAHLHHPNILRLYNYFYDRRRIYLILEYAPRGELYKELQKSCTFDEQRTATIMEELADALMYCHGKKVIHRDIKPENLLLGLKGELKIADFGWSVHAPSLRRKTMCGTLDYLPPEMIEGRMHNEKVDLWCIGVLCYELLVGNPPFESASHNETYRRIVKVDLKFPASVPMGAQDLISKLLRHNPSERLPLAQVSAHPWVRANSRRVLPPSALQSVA

Calu6 xenografts = test: Calu6 xenograft growth delay, combination with gemcitabine; assay type: in vivo, mouse; conditions: for antitumor activity of each agent alone: CCT244747 75mg/kg p.o. or gemcitabine 100mg/kg i.v. alone
CHK1 [19] = molecular target: T1, CHK1; test: Cell-based ELISA for G2 checkpoint abrogation; remark: listed apart in the source
CDK1 [20] = molecular target: T2, CDK1 (Homo sapiens, UniProt P06493); conditions: versus CHK1
T2 sequence (P06493 whole entry, looked up): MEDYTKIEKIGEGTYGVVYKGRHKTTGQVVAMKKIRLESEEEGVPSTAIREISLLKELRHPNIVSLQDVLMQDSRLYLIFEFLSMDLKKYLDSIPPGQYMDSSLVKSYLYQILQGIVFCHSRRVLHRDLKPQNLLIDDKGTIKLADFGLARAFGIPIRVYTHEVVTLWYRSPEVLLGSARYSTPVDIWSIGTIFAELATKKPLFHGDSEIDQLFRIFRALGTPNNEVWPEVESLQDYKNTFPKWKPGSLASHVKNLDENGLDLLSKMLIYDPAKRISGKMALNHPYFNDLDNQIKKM

HT29 [21] = test: cells; conditions: Homo sapiens, HT-29, 96 h
CDK1 [22] = molecular target: T2, CDK1; test: biochemical
[23] = In vitro metabolism in male CD1 mouse microsomes; assay type: in vitro ADME; conditions: 10 μM, 30 minutes at 37°C, NADPH and UDPGA
SW620 cells = test: Contact time / scheduling study with gemcitabine in SW620
[24] = BALB/c, mouse, in vivo, po, 10 mg/kg
[25] = 0.5μM for 23h following etoposide 25μM × 1h

FLT3, sequence (P36888 27-993): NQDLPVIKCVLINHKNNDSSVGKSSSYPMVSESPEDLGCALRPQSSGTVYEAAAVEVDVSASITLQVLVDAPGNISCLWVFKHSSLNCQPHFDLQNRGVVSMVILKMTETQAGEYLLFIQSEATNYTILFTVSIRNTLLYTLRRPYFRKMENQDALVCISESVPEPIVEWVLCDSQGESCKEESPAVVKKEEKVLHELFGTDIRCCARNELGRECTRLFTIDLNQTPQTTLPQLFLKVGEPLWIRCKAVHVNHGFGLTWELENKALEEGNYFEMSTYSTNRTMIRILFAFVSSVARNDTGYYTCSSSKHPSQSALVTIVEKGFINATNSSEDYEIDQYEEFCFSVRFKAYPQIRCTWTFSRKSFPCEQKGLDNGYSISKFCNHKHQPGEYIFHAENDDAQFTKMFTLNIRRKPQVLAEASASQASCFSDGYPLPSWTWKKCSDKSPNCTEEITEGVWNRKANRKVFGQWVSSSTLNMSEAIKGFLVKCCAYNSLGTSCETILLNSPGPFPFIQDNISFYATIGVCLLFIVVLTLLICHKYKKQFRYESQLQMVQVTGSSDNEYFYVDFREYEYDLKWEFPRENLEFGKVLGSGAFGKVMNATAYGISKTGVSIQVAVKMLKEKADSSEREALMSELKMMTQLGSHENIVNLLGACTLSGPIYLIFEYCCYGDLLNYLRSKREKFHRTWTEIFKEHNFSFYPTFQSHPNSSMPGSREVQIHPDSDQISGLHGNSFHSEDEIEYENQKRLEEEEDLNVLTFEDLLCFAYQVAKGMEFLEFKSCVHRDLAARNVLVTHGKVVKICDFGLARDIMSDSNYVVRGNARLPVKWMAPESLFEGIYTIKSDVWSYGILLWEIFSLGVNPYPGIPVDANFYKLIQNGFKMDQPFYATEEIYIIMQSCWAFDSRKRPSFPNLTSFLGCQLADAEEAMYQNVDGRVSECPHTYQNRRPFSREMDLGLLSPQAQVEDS

Structure (SMILES): COc1cc(Nc2cnc(C#N)c(O[C@H](C)CN(C)C)n2)ncc1-c1cnn(C)c1 [CCT244747]
- IC50 (FLT3): 600 nM
- selectivity against FLT3 (FLT3; versus CHK1): 75 fold
- Potentiation Index (PI) (SW620 [1]; 5FU): 4.9±0.8 (n=3)
- Potentiation Index (PI) (SW620 [1]; 5FdU): 47±14 (n=3)
- Potentiation Index (PI) (SW620 [1]; CDDP): 4.2±0.87 (n=3)
- Potentiation Index (PI) (SW620 [1]; Etop): 4.9±2.2 (n=3)
- Potentiation Index (PI) (SW620 [1]; Gem): 12.2±2.7 (n=5)
- Potentiation Index (PI) (SW620 [1]; IR +1h): 4.9±1.6 (n=4)
- Potentiation Index (PI) (SW620 [1]; IR −1h): 4.5±1.2 (n=4)
- Potentiation Index (PI) (SW620 [1]; SN38): 2.6±0.6 (n=3)
- growth delay (HT29 xenografts; 75mg/kg p.o. added to gemcitabine 100mg/kg i.v.): 11.4 days
- antitumor effect alone (HT29 xenografts; 75mg/kg p.o. alone): minimal effect
- difference in growth delay, combination versus gemcitabine alone (HT29 xenografts; P<0.001): 9.1 days
- body weight loss (HT29 xenografts; combination with gemcitabine): minimal body weight loss
- IC50 (CHK2): > 10 µM
- selectivity against CHK2 (CHK2; versus CHK1): more than 1,000 fold
- AUC0-∞ ([2]; 10mg/kg i.v.): 3.93 μMh
- peak plasma concentration ([2]; 10mg/kg i.v., at 5 min): 3.62 µM
- AUC0-∞ ([2]; 10mg/kg oral): 2.43 μMh
- peak plasma concentration ([2]; 10mg/kg oral): 0.98 µM
- clearance ([2]; BALB/c, mouse, in vivo, 10 mg/kg): 103 mL/min/kg
- half-life ([2]; BALB/c, mouse, in vivo, iv, 10 mg/kg): 40.2 min
- bioavailability [2, 24]: 62%
- half-life [2, 24]: 55.2 min
- antitumor activity combined with gemcitabine (SW620 xenografts): Modest activity
- GI50 (Calu6 [3]): 330 ± 51 nM
- Potentiation Index (PI) (Calu6 [4]; Gem): 5.6±0.96 (n=3)
- Potentiation Index (PI) (Calu6 [4]; SN38): 1.4±0.24 (n=3)
- inhibition (AMPK): > 50%
- IC50 (CHK1 [5]): 94 ± 66 nM
- inhibition (MAP4K): > 50%
- fraction unbound at 1 h, 10 μM [6]: 0.244
- number of kinases with >50% inhibition (120-140 human kinases; 1μM, panel of 140 kinases): 8
- number of kinases inhibited by ≥80% (120-140 human kinases; 10μM, total of 121 kinases): 9
- inhibition (RSK): > 50%
- growth delay (HT29 tumors; 150mg/kg p.o. added to irinotecan 25mg/kg i.p.): 13.5 days
- growth delay (HT29 tumors; 150mg/kg p.o. alone): 0.3 days
- nadir of body weight loss (HT29 tumors; combination with irinotecan, day 10): 1.3%
- inhibition at 1 µM (NUAK1): > 50%
- Potentiation Index (PI) (MiaPaCa-2; Gem): 16±6.3 (n=5)
- Potentiation Index (PI) (MiaPaCa-2; SN38): 5.0±0.82 (n=5)
- IC50 (CHK1 [7]): 29 to 170 nM
- inhibition at 1 µM (IRAK 1): > 50%
- abolition of S317 and S345 CHK1 phosphorylation [8]: neither phosphorylation was completely abolished
- IC50 (recombinant human CHK1): 8 nM
- therapeutic window (ratio of MIA and GI50) (CHK1 [9]): 21 fold
- inhibition at 1 µM (TrKA): > 50%
- Potentiation Index (PI) (HT29 [10]; 5FU): 2.2±0.2 (n=3)
- Potentiation Index (PI) (HT29 [10]; 5FdU): 9.6±1.2 (n=3)
- Potentiation Index (PI) (HT29 [10]; CDDP): 1.8±0.32 (n=3)
- Potentiation Index (PI) (HT29 [10]; Etop): 1.9±0.63 (n=4)
- Potentiation Index (PI) (HT29 [10]; Gem): 8.5±1.6 (n=4)
- Potentiation Index (PI) (HT29 [10]; IR +1h): 3.0±0.67 (n=4)
- Potentiation Index (PI) (HT29 [10]; IR −1h): 3.9±0.32 (n=4)
- Potentiation Index (PI) (HT29 [10]; SN38, SRB GI50 / Combination GI50): 1.9±0.14 (n=4)
- tolerability ([11]; TH-MYCN mice, 100mg/kg p.o. × 7 days): well tolerated with no drug-related morbidity
- effect on tumor versus vehicle treated controls (final tumor weight) ([11]; TH-MYCN neuroblastoma, 100mg/kg p.o. × 7 days, P<0.001): significant tumor shrinkage
- tumor volume reduction by MRI ([11]; TH-MYCN neuroblastoma, 100mg/kg p.o. × 7 days, one example tumor): 79%
- post-treatment tumor volume (MRI) ([11]; TH-MYCN neuroblastoma, 100mg/kg p.o. × 7days, pre-treatment 1960mm^3): 417 mm^3
- IC50 (CHK1 [12]): 170 ± 5.8 nM
- effect on gemcitabine induced S296 CHK1 autophosphorylation in vivo [13]: significantly decreased
- GI50 [14]: 330 to 3000 nM
- inhibition of CHK1 in kinase profiling (CHK1 [15]): marked inhibition
- GI50 (SW620 [16]): 3000 ± 1200 nM
- further cells accumulating in G2/M ([17]; 0.1μM with SN38 20nM × 24h): 33.8%
- reduction of SN38-induced S-phase arrest ([17]; 0.1μM with SN38 20nM × 24h): 42.3%
- increase in G1 [17, 25]: 9.6%
- loss of G2/M cells [17, 25]: 30%
- S' population (S-phase cells not incorporating BrdU) ([17]; 0.5μM for 23h following etoposide, increased from 1.2): 17.7%
- effect alone on the cell cycle ([17]; alone, up to 0.5μM × 24h): minimal effects
- S'-phase cells ([17]; increasing concentrations with SN38 20nM × 24h, increased from 5): 42.1%
- effect alone on the cell cycle ([18]; alone, up to 1μM × 24h): minimal effects
- increase in G1 ([18]; with gemcitabine 10nM × 24h): 4.4%
- increase in S'-phase ([18]; with gemcitabine 10nM × 24h): 19%
- reduction in S-phase ([18]; with gemcitabine 10nM × 24h): 28.8%
- inhibition at 1 µM (Aurora B): > 50%
- growth delay (Calu6 xenografts; Calu6 xenografts, 75mg/kg p.o. added to gemcitabine 100mg/kg i.v.): 15.9 days
- antitumor activity of each agent alone (Calu6 xenografts; Calu6 xenografts): minimal activity
- increase in growth delay, combination versus gemcitabine alone (Calu6 xenografts; Calu6 xenografts, P<0.001): 8.7 days
- nadir of body weight loss (Calu6 xenografts; combination with gemcitabine, day 8): 5.4%
- IC50 (CHK1 [19]): 44 ± 10 nM
- selectivity against CDK1 (CDK1 [20]): more than 1,000 fold
- GI50 (HT29 [21]): 620 ± 230 nM
- IC50 (CDK1 [22]): > 10 µM
- microsomal metabolism [23]: 45%

Structure (SMILES): C[C@H](CN(C)C)Oc1nc(Nc2cc3cccc(Cl)c3cn2)cnc1C#N [SAR-020106]
- enhancement of gemcitabine activity (SW620 cells; exposures <24h): minimal enhancement
- continuous exposure giving maximum potentiation of gemcitabine cytotoxicity (SW620 cells; gemcitabine): ≥ 48 h

Structure (SMILES): COc1cc([C@@H]2c3cc4c(cc3[C@@H](O[C@@H]3O[C@@H]5CO[C@@H](C)O[C@H]5[C@H](O)[C@H]3O)[C@H]3COC(=O)[C@H]23)OCO4)cc(OC)c1O [etoposide, reference compound]
- cells in G2/M ([17]; etoposide 25μM × 1h, measured at 24h): 70.5%

Structure (SMILES): Nc1ccn([C@@H]2O[C@H](CO)[C@@H](O)C2(F)F)c(=O)n1 [gemcitabine, reference compound]
- growth delay (HT29 xenografts; gemcitabine alone 100mg/kg i.v. days 0, 7, 14): 2.3 days
- antitumor activity of each agent alone (Calu6 xenografts; Calu6 xenografts): minimal activity

Structure (SMILES): CCc1c2c(nc3ccc(OC(=O)N4CCC(N5CCCCC5)CC4)cc13)-c1cc3c(c(=O)n1C2)COC(=O)[C@]3(O)CC [irinotecan, reference compound]
- growth delay (HT29 tumors; irinotecan alone 25mg/kg i.p. days 0, 4, 8): 6.9 days
